These results are taken from patent US20220087275A1, “MAGNESIUM ION AS ANTIBACTERIAL AGENT” (THE STATE OF ISRAEL, MINISTRY OF AGRICULTURE & RURAL …, priority 2016, published 2022).

Where two headings read alike, the source gives them in different places.

One data set deals with epsA-O operon. In words: β-Galactosidase transcriptional fusion, matrix gene expression (eps). The data set is classed as cell-based, Bacillus subtilis. The conditions noted are these: for expression of the eps operon: similar concentrations of NaCl or CaCl2. The text has this:
(§1) To analyze the effect of magnesium ions on matrix gene expression a transcriptional fusions of the promoters for eps and tapA to the gene encoding β galactosidase were used. Samples of generated pellicles as described above were collected and resuspended in phosphate-buffered saline (PBS) buffer. Typical long bundled chains of cells in the biofilm colony were disrupted using mild sonication as described previously. Optical density of the cell samples was normalized using OD600. One milliliter of cell suspensions was collected and assayed for (3-Galactosidase activity as described previously.
(§2) The effect of Mg^2+ ions on matrix gene expression was examined by using transcriptional fusions of the promoters for epsA-O and tapA to the gene encoding β galactosidase.

In data set [1] the test system is Bacillus subtilis wild strain NCIB3610. Nature of the data set: Pellicle (biofilm) formation in LBGM broth. As to conditions: for biofilm formation by B. subtilis: NaCl or CaCl2 added to LBGM, results not shown; for pellicle formation by B. subtilis: LBGM medium, 30° C., 24 h. Type of data set: cell-based. The protocol:
Plates were incubated at 30° C. for 24 h.

Data set [2] deals with tapA operon. Nature of the data set: β-Galactosidase transcriptional fusion, matrix gene expression (tapA). The data set is classed as cell-based, Bacillus subtilis. As to conditions: for expression of the tapA operon: similar concentrations of NaCl or CaCl2.
Excerpt: as §1, §2

Data set [3] has as its system B. subtilis. As to conditions: milk supplemented with additional 3 mM or 5 mM MgCl2. The text has this: The effect of increase in the concentration of magnesium ions was examined. […] The survival rate of bacteria following pasteurization was examined.
Data set [4] has as its system B. subtilis. The procedure: The effect of magnesium ions on biofilm formation within cow's milk was examined. A skilled artisan will appreciate that magnesium concentration within cow's milk typically ranges between 4-6 mM.
Data set [5] has as its system tapA operon. The conditions noted are these: increase of 1, 3 or 5 mM; particularly 5 mM MgCl2. The procedure:
The effect of increase in concentration of Mg′ within milk on the expression of tapA operon, which is one of the major operon for matrix production, was examined. For this purpose, B. subtilis were grown within cow's milk and cow's milk with an increase of 1 mM, 3 mM or 5 mM in concentration of magnesium ions. Further, transcriptional fusions of tapA promoter to the gene encoding cyan fluorescent protein (CFP) were utilized.

Data set [6] deals with Bacillus subtilis NCIB 3610.
Description: Additional experiments were conducted in order to evaluate the effect of magnesium ions on colony type biofilm formation by Bacillus subtilis on a solid surface. First a starter culture was prepared by growing bacteria from the strain Bacillus subtilis NCIB 3610 in an LB (Lysogeny broth) medium at 37° C., 150 rpm for 5 hours. […] Following these steps, 3 μl of the starter culture were spotted onto each of the solid biofilm promoting mediums. The samples were incubated at 30° C. for 72 hours prior to analysis. Images were taken using a Zeiss Stemi 2000-C microscope with an axiocam ERc 5s camera.
Data set [7] has as its system B. subtilis cells (YC161 with Pspank-gfp). The conditions noted are these: 25 mM MgCl2 and higher; 24 h in LBGM.
Description: For fluorescent microscopy, the strain YC161 that produced GFP constitutively, was used. The strain was first grown in shaking culture for 5 h 37° C./150 rpm in LB to around 1×10^8 CFU per ml. Next, 5 μl (around 5×10^5 CFU) of suspension from the generated culture was introduced into 4 ml of LBGM medium and incubated at 30° C. for 24 h statically. Afterwards, one milliliter of suspension from each sample was collected, mildly sonicated (10 sec/20% Amp/5) and centrifuged at 5000 rpm for 2 min. Next, the supernatant was removed and the pellet was re-suspended by pipetting. For microscopic observation, 34, from the samples were transferred onto a glass slide and visualized in a transmitted light microscope using Nomarski differential interference contrast (DIC), at ×40 magnification. A confocal laser scanning microscope was used to visualize GFP expression of strain YC161 using an Olympus IX81 confocal laser scanning microscope (Japan) equipped with 488 nm argon-ion and 543 nm helium neon lasers.
Next, the effect of magnesium ions was visualized microscopically by testing bundling phenotype of fluorescently tagged B. subtilis cells (YC161 with Pspank-gfp), that produce GFP constitutively.
For data set [8], the system named is B. subtilis. As to conditions: at 50 mM and higher (50 and 80 mM tested). The text has this:
Further, the effect of magnesium ions on biofilm formation by B. subtilis within orange juice enriched medium, was examined.

For data set [9], the system named is Bacillus subtilis wild strain NCIB3610. The conditions noted are these: high concentrations of Mg ions; solid LBGM, 30° C., 72 h.
Description: For routine growth, all strains were propagated in Lysogeny broth (LB; 10 g of tryptone, 5 g of yeast extract and 5 g of NaCl per liter) or on solid LB medium supplemented with 1.5% agar. For biofilm generation, bacteria were grown to stationary phase in LB medium at 37° C. in shaking culture to around 1×10^8 CFU per ml. Biofilms were generated at 30° C. in the biofilm promoting medium LBGM (LB+1% (v/v) glycerol+0.1 mM MnSO4). […] For colony type biofilm formation, 3 μl of the cells (around 3×10^5 CFU) was spotted onto LBGM medium solidified with 1.5% agar as described previously. Plates were incubated at 30° C. for 72 h prior to analysis. For pellicle formation, 5 μl of the cells (around 5×10^5 CFU) was mixed within 4 ml of LBGM broth in 12-well plates (Costar). Plates were incubated at 30° C. for 24 h. Images were taken using a Zeiss Stemi 2000-C microscope with an axiocam ERc 5s camera.
A further data set concerns B. subtilis NCIB3610. As to conditions: LBGM, tested concentrations (5-100 mM MgCl2). The procedure: Initially, the cells were grown in shaking cultures over night at 23° C./150 rpm in LB to around 2×10^9 CFU per ml. […] The absorbance of the cultures at 600 nm was measured periodically for each culture for 9 hours. Each condition had 3 replicates, and the growth curve experiments were repeated twice.

The procedure of data set [10]:
In order to examine milk clotting parameters, milk samples obtained from the dairy farm of the Agricultural Research Organization (ARO; Bet Dagan, Israel). […] Milk-clotting parameters such as rennet clotting time (RCT; min) and curd firmness (CF; V) after 90 min (CF-90) which are measured with an Optigraph instrument (Ysebaert, Frepillon, France) as described by Leitner et al. (2011). Results are presented in a graph. The point in which the curve is split into two curves, represents the rennet Clotting Time (RCT), which is the time between the addition of the clotting enzyme and the beginning of the coagulation process. The curd firmness is derived from the distance of the two curves in the graph 30 min after the addition of the clotting enzyme, or 90 minutes after the addition of the clotting enzyme.

The conditions of data set [11]: 50 mM or 100 mM MgCl2; B. subtilis culture, 5 hours, 37° C. The protocol:
Cultures were incubated for 5 hours at 37° C. and 50 rpm and pH was measured every hour using pH strips.

The mark [12] stands for this setting: elevated concentrations of Mg2+ ions, pellicles in LBGM.

For the compound `[Cl-].[Na+]` [NaCl], the “expression of the eps operon” value in the data set with epsA-O operon is “not downregulated in a similar manner”. Also, in [1], the “biofilm formation by B. subtilis” value is “none of those compounds could inhibit the biofilm formation in the same manner as MgCl2”. Besides, the “expression of the tapA operon” value in the data set on tapA operon [2] is recorded as “not downregulated in a similar manner”.

For the compound `[Cl-].[Cl-].[Mg+2]` [MgCl2, magnesium chloride], the “susceptibility of bacteria to heat pasteurization” value in the data set with B. subtilis [3] is given as “increase the susceptibility of bacteria to heat pasteurization”. The “biofilm bundles within milk” value in the data set on B. subtilis [4] (5 mM increase of MgCl2 concentration) is recorded as “biofilm bundles are almost totally diminished”. The “biofilm formation by B. subtilis within milk” value is reported as “inhibit biofilm formation by B. subtilis within milk” with B. subtilis [4] (cow's milk, magnesium increase of 1, 3 or 5 mM) and “inhibitory effect of Mg2+ ions is notable” in the data set on B. subtilis [4] (magnesium concentration increased by 1 mM). In the data set with B. subtilis [4] (increased Mg ions concentration within milk), the “bacterial growth within milk” value is given as “not significantly affected”. In addition, the “reduction in eps expression” value in the data set on epsA-O operon (setting [12]) is recorded as “around 4 fold”. Besides, in the data set on tapA operon [5], the “expression of the tapA operon within milk” value is reported as “reduced drastically”. Further, in data set [1], the “pellicle formation by B. subtilis” value was “inhibited notably pellicle formation by B. subtilis in a concentration dependent manner”. Further, the “biofilm formation by B. subtilis on solid surface” value in data set [6] (magnesium ions 20 mM or 50 mM spread onto a solid surface) is “reduced biofilm formation”. For the same compound, the “biofilm formation onto pre-treated surface, stronger effect” value in [6] (solution of 20 mM MgCl2 as printed (second sentence)) is listed as “inhibitory effect is more significant”. Besides, the “biofilm formation by B. subtilis onto pre-treated surface” value in data set [6] (surface spread with solution of 20 mM MgCl2, 30° C., 72 h) is listed as “inhibitory effect on biofilm formation”. In addition, the “bundling ability of B. subtilis cells” value in [7] is recorded as “significant reduction in bundling ability”. Also, the “colony type biofilm formation within orange juice enriched medium” value with B. subtilis [8] is “inhibits colony type biofilm formation”. In addition, the “colony type biofilm formation” value in [9] is reported as “inhibited significantly”. In the data set on B. subtilis NCIB3610, the bacterial growth result is “did not affect bacterial growth”. In addition, in the data set on tapA operon [2] (setting [12]), the “decrease in tapA expression” value was about 14.5 fold. The “decrease in RCT” value in data set [10] (addition of 1 mM MgCl2) is on record as “about 32%”; in data set [10] (addition of 3 mM MgCl2) it was about 51%; in data set [10] (addition of 5 mM MgCl2), about 62%; in data set [10] (addition of 7 mM MgCl2) it was about 70%; in data set [10] (addition of 10 mM MgCl2), about 84%; in [10] (addition of 15 mM MgCl2), about 73%. Further, in data set [10] (addition of 20 mM MgCl2), the “decrease in RCT” value is on record as about 74%. For the same compound, the “increase in curd firmness” value in data set [10] (addition of 1 mM MgCl2) is recorded as “about 37%”; in data set [10] (addition of 3 mM MgCl2), about 54%; in data set [10] (addition of 5 mM MgCl2), about 69%; in [10] (addition of 7 mM MgCl2), about 82%; in data set [10] (addition of 10 mM MgCl2), about 84%; in [10] (addition of 15 mM MgCl2), about 90%. Besides, the “increase in curd firmness” value in [10] (addition of 20 mM MgCl2) is about 72%. The “pH of the milk” value in [11] is listed as “does not affect the pH of the milk”.

For `O=S(=O)([O-])[O-].[Mg+2]` [MgSO4, magnesium sulfate], in data set [1], the “pellicle formation by B. subtilis” value was “inhibited the pellicle formation”.

With `[Ca+2].[Cl-].[Cl-]` [CaCl2], the “expression of the eps operon” value in the data set with epsA-O operon is listed as “not downregulated in a similar manner”. Further, the “biofilm formation by B. subtilis” value in data set [1] was “none of those compounds could inhibit the biofilm formation in the same manner as MgCl2”. Besides, the “expression of the tapA operon” value with tapA operon [2] is reported as “not downregulated in a similar manner”.
